Numbers after ± are expanded uncertainties.
Assay: xn = mol fraction of the nth substance listed
Conditions: 100 kPa, Liquid; for viscosity: Concentric cylinders viscometry; for mass density: Vibrating tube method

CCCC(C)O (centres undefined) [pentan-2-ol] + CC(=O)CC(C)C
Conditions	mass density [kg/m3]	viscosity [mPa·s]
293.15 K, x2 = 0	809.3 ± 0.3	3.974 ± 0.083
293.15 K, x2 = 0.0812	807.6 ± 0.3	2.699 ± 0.057
293.15 K, x2 = 0.1588	806.2 ± 0.3	2.09 ± 0.044
293.15 K, x2 = 0.2391	804.9 ± 0.3	1.709 ± 0.036
293.15 K, x2 = 0.3508	803.3 ± 0.3	1.366 ± 0.029
293.15 K, x2 = 0.4441	802.4 ± 0.3	1.14 ± 0.024
293.15 K, x2 = 0.561	801.4 ± 0.3	0.924 ± 0.02
293.15 K, x2 = 0.6484	800.9 ± 0.3	0.818 ± 0.018
293.15 K, x2 = 0.741	800.7 ± 0.3	0.74 ± 0.016
293.15 K, x2 = 0.8528	800.5 ± 0.3	0.671 ± 0.015
293.15 K, x2 = 0.9406	800.7 ± 0.3	0.63 ± 0.014
298.15 K, x2 = 0	805.3 ± 0.3	3.277 ± 0.069
298.15 K, x2 = 0.0812	803.5 ± 0.3	2.326 ± 0.049
298.15 K, x2 = 0.1588	801.9 ± 0.3	1.83 ± 0.039
298.15 K, x2 = 0.2391	800.6 ± 0.3	1.496 ± 0.032
298.15 K, x2 = 0.3508	799 ± 0.3	1.202 ± 0.026
298.15 K, x2 = 0.4441	797.9 ± 0.3	1.018 ± 0.022
298.15 K, x2 = 0.561	796.9 ± 0.3	0.85 ± 0.019
298.15 K, x2 = 0.6484	796.4 ± 0.3	0.767 ± 0.017
298.15 K, x2 = 0.741	796 ± 0.3	0.69 ± 0.015
298.15 K, x2 = 0.8528	795.9 ± 0.3	0.63 ± 0.014
298.15 K, x2 = 0.9406	795.9 ± 0.3	0.59 ± 0.013
303.15 K, x2 = 0	801.2 ± 0.3	2.717 ± 0.057
303.15 K, x2 = 0.0812	799.3 ± 0.3	2.029 ± 0.043
303.15 K, x2 = 0.1588	797.7 ± 0.3	1.619 ± 0.034
303.15 K, x2 = 0.2391	796.3 ± 0.3	1.333 ± 0.028
303.15 K, x2 = 0.3508	794.6 ± 0.3	1.078 ± 0.023
303.15 K, x2 = 0.4441	793.5 ± 0.3	0.928 ± 0.02
303.15 K, x2 = 0.561	792.4 ± 0.3	0.787 ± 0.017
303.15 K, x2 = 0.6484	791.9 ± 0.3	0.711 ± 0.016
303.15 K, x2 = 0.741	791.5 ± 0.3	0.641 ± 0.014
303.15 K, x2 = 0.8528	791.3 ± 0.3	0.589 ± 0.013
303.15 K, x2 = 0.9406	791.4 ± 0.3	0.553 ± 0.013
308.15 K, x2 = 0	797 ± 0.3	2.282 ± 0.048
308.15 K, x2 = 0.0812	795 ± 0.3	1.757 ± 0.037
308.15 K, x2 = 0.1588	793.4 ± 0.3	1.429 ± 0.03
308.15 K, x2 = 0.2391	791.9 ± 0.3	1.185 ± 0.025
308.15 K, x2 = 0.3508	790.1 ± 0.3	0.966 ± 0.021
308.15 K, x2 = 0.4441	788.9 ± 0.3	0.842 ± 0.018
308.15 K, x2 = 0.561	787.8 ± 0.3	0.728 ± 0.016
308.15 K, x2 = 0.6484	787.2 ± 0.3	0.663 ± 0.015
308.15 K, x2 = 0.741	786.8 ± 0.3	0.6 ± 0.013
308.15 K, x2 = 0.8528	786.6 ± 0.3	0.554 ± 0.013
308.15 K, x2 = 0.9406	786.7 ± 0.3	0.526 ± 0.012
313.15 K, x2 = 0	792.7 ± 0.3	1.931 ± 0.041
313.15 K, x2 = 0.0812	790.6 ± 0.3	1.52 ± 0.032
313.15 K, x2 = 0.1588	788.9 ± 0.3	1.249 ± 0.027
313.15 K, x2 = 0.2391	787.4 ± 0.3	1.051 ± 0.023
313.15 K, x2 = 0.3508	785.6 ± 0.3	0.876 ± 0.019
313.15 K, x2 = 0.4441	784.3 ± 0.3	0.773 ± 0.017
313.15 K, x2 = 0.561	783.2 ± 0.3	0.675 ± 0.015
313.15 K, x2 = 0.6484	782.6 ± 0.3	0.617 ± 0.014
313.15 K, x2 = 0.741	782.2 ± 0.3	0.561 ± 0.013
313.15 K, x2 = 0.8528	782 ± 0.3	0.522 ± 0.012
313.15 K, x2 = 0.9406	782.1 ± 0.3	0.497 ± 0.011
318.15 K, x2 = 0	788.4 ± 0.3	1.647 ± 0.035
318.15 K, x2 = 0.0812	786.3 ± 0.3	1.329 ± 0.028
318.15 K, x2 = 0.1588	784.5 ± 0.3	1.116 ± 0.024
318.15 K, x2 = 0.2391	782.9 ± 0.3	0.949 ± 0.021
318.15 K, x2 = 0.3508	781 ± 0.3	0.8 ± 0.017
318.15 K, x2 = 0.4441	779.8 ± 0.3	0.712 ± 0.016
318.15 K, x2 = 0.561	778.6 ± 0.3	0.627 ± 0.014
318.15 K, x2 = 0.6484	778 ± 0.3	0.577 ± 0.013
318.15 K, x2 = 0.741	777.6 ± 0.3	0.53 ± 0.012
318.15 K, x2 = 0.8528	777.3 ± 0.3	0.492 ± 0.011
318.15 K, x2 = 0.9406	777.4 ± 0.3	0.465 ± 0.011
323.15 K, x2 = 0	784 ± 0.3	1.419 ± 0.03
323.15 K, x2 = 0.0812	781.9 ± 0.3	1.168 ± 0.025
323.15 K, x2 = 0.1588	780 ± 0.3	0.995 ± 0.021
323.15 K, x2 = 0.2391	778.4 ± 0.3	0.855 ± 0.019
323.15 K, x2 = 0.3508	776.5 ± 0.3	0.729 ± 0.016
323.15 K, x2 = 0.4441	775.2 ± 0.3	0.654 ± 0.015
323.15 K, x2 = 0.561	774 ± 0.3	0.583 ± 0.013
323.15 K, x2 = 0.6484	773.4 ± 0.3	0.543 ± 0.012
323.15 K, x2 = 0.741	772.9 ± 0.3	0.505 ± 0.012
323.15 K, x2 = 0.8528	772.7 ± 0.3	0.468 ± 0.011
323.15 K, x2 = 0.9406	772.8 ± 0.3	0.445 ± 0.01
